Laboratory results: the NIST ThermoML archive (doi:10.1021/je500153g)

Experiment: xn = mol fraction of the nth substance listed
Conditions: 101 kPa, Liquid; for viscosity: Concentric cylinders viscometry; for mass density: Vibrating tube method

O=S1(=O)CCCC1 [sulfolane] + CCC(C)O
Conditions | mass density, 303.15 K [kg/m3] | mass density, 313.15 K [kg/m3] | mass density, 323.15 K [kg/m3] | mass density, 333.15 K [kg/m3] | mass density, 343.15 K [kg/m3] | viscosity, 303.15 K [mPa·s] | viscosity, 313.15 K [mPa·s] | viscosity, 323.15 K [mPa·s] | viscosity, 333.15 K [mPa·s] | viscosity, 343.15 K [mPa·s]
x1 = 0.099 | 846.6 | 837.8 | 828.8 | 819.3 | 809.4 | 2.16 | 1.62 | 1.26 | 1 | 0.8
x1 = 0.198 | 894.1 | 885.2 | 876 | 866.7 | 857 | 2.17 | 1.67 | 1.33 | 1.08 | 0.89
x1 = 0.298 | 941.7 | 932.9 | 923.8 | 914.6 | 905 | 2.34 | 1.83 | 1.49 | 1.21 | 1.01
x1 = 0.38 | 980.6 | 971.7 | 962.6 | 953.3 | 943.9 | 2.56 | 2.01 | 1.63 | 1.35 | 1.14
x1 = 0.499 | 1036.4 | 1027.5 | 1018.4 | 1009.3 | 1000 | 2.98 | 2.37 | 1.93 | 1.61 | 1.37
x1 = 0.593 | 1079.6 | 1070.7 | 1061.8 | 1052.7 | 1043.5 | 3.46 | 2.77 | 2.27 | 1.89 | 1.62
x1 = 0.691 | 1125.1 | 1116.2 | 1107.2 | 1098.2 | 1089.2 | 4.19 | 3.36 | 2.76 | 2.31 | 1.97
x1 = 0.799 | 1173.9 | 1165.1 | 1156.2 | 1147.4 | 1138.5 | 5.41 | 4.32 | 3.53 | 2.94 | 2.49
x1 = 0.9 | 1219 | 1210.1 | 1201.4 | 1192.5 | 1183.7 | 7.23 | 5.72 | 4.63 | 3.82 | 3.21
x1 = 1 | 1262.9 | 1254.1 | 1245.2 | 1236.6 | 1228.1 | 10.4 | 8.07 | 6.45 | 5.22 | 4.32
